Laboratory results: patent US5360803A, “Composition and method for treating cancer” (Dan Farber Cancer Institute, priority 1992, dated 1994)
Where two headings read alike, the source gives them in different places.

Key:
human melanoma LOX = assay: survival of nude mice implanted with human melanoma LOX; type: in vivo, male athymic Swiss nu/nu mouse (human tumor); settings: for response vs control in vivo at 3 mg/kg: 3 mg/kg i.p. on day 1, 4, 8, 10, 12
Description: LOX, a human melanoma cell line, grown subcutaneously in nude mice was excised, trypsinized to yield a single cell suspension using a metal grid with a […] mesh. […] Five million viable trypan blue negative cells made up in 0.1 ml of Dulbecco modified Eagle medium (DMFE) were injected into the peritoneal cavity of a male athymic Swiss nu/nu mouse. The control group and each treatment group consisted of 5 to 10 mice. Treatment was commenced the following day by intraperitoneal injection.
Ten control mice received 0.25 ml of 2% dextrose on these days the treated groups were injected with the compounds of this invention. […] T/C is the ratio, expressed as a percentage of the mean survival age of the treated group to the mean survival age of the untreated control group.

CV-1 cells = assay: selective killing assay, colony number reduced to 50% of control, normal monkey kidney epithelial cell line CV-1; type: cell-based; settings: 24 hours treatment; for IC50: Primates
From the text: (§1) The control received culture media only.

CRL 1420 cells = assay: colony assay of Example 1 with human pancreatic carcinoma CRL 1420 cell line; type: cell-based; settings: for Selectivity: CV-1/CRL-1420; for CRL-1420(IC50) / IC50: Table VII, human pancreatic carcinoma, 24 hours treatment; for IC50: Homo sapiens, 24 h;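 on all read-outs here: colony formation assay, cells exposed for 24 h then regrown 7 to 10 days without compound, colonies stained with crystal violet, control given medium alone, normal reference CV-1 monkey kidney epithelial cells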
CX-1 cells = assay: selective killing assay, colony number reduced to 50% of control, human colon carcinoma cell line CX-1; type: cell-based; settings: for Selectivity (ratio of IC50 for CV-1 and IC50 for CX-1): CV-1/CX-1; for CX-1 (IC50) / IC50: human colon carcinoma, 24 hours treatment, colony count after 7 to 10 days;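 on all read-outs here: colonies stained with crystal violet and counted, control cells given medium alone, exposure at 37 °C, normal monkey kidney epithelial CV-1 cells as the non-cancer comparator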
Description: (§2) Human colon carcinoma cell line CX-1 or normal monkey kidney epithelial cell line CV-1 was chosen as representatives of cancer cells and normal cells, respectively. […] CX-1 cells (2,000 cells/well) and CV-1 cells (1,000 cells/well) were plated in 24-well plastic culture plates. […] The control received culture media only. Cells were treated with compounds of General Formulas (I) to (V) at 37° C. for 24 hours. After rinsing with fresh culture medium three times, the cells were further incubated at 37° C. for 7 to 10 days. Cell colonies were fixed and stained with 2% crystal violet in 70% ethanol for 10 minutes and rinsed in water. […] The selectivity is defined as the ratio of IC50 for CV-1 and IC50 for CX-1.

LOX cells = assay: colony assay of Example 1 with human melanoma LOX cell line; type: cell-based; settings: for Selectivity: CV-1/LOX; for LOX(IC50) / IC50: Table V, human melanoma, 24 hours treatment; for IC50: Homo sapiens, LOX, 24 h;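 on all read-outs here: colony formation assay with 24 h exposure at 37 °C, then 7 to 10 days of regrowth, crystal violet staining of colonies, control wells given medium alone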
Description: as §2

EJ cells = assay: colony assay of Example 1 with human bladder carcinoma EJ cell line; type: cell-based; settings: for Selectivity: CV-1/EJ; for EJ (IC50) / IC50: Table IV, human bladder carcinoma, 24 hours treatment; for IC50: Homo sapiens, EJ, 24 h;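 on all read-outs here: colony formation assay with 24 h compound exposure at 37 °C, then 7–10 days drug-free regrowth, colonies stained with crystal violet, controls given medium alone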
Description: as §2

MCF-7 cells = assay: colony assay of Example 1 with human breast carcinoma MCF-7 cell line; type: cell-based; settings: for Selectivity: CV-1/MCF-7; for IC50: Homo sapiens, MCF7, 24 h, Table VI, human breast carcinoma, 24 hours treatment
From the text: as §1

[1] = 5 mg/kg i.p. on day 1, 4, 8, 11
[2] = Table III, normal monkey kidney epithelial cells, colony count after 7 to 10 days
[3] = CV-1, Table III, normal monkey kidney epithelial cells, colony count after 7 to 10 days
[4] = Mus musculus, ip, 24 h, read-out: T/C

Row | Compound | IC50 (CRL 1420 cells) [µg/mL] | IC50 (MCF-7 cells) [µg/mL] | IC50 (LOX cells) [µg/mL] | IC50 (EJ cells) [µg/mL] | Selectivity (CRL 1420 cells) | Selectivity (ratio of IC50 for CV-1 and IC50 for CX-1) (CX-1 cells) | Selectivity (LOX cells) | Selectivity (EJ cells) | IC50 (CV-1 cells; CV-1, 24 h, Table IV) [µg/mL] | IC50 (CV-1 cells; CV-1, 24 h, Table V) [µg/mL] | IC50 (CV-1 cells; CV-1, 24 h, Table VI) [µg/mL] | IC50 (CV-1 cells; CV-1, 24 h, Table VII) [µg/mL] | IC50 (CV-1 cells; [3]) [µg/mL] | IC50 (CX-1 cells; Homo sapiens, CX-1, Table III) [µg/mL] | Selectivity (MCF-7 cells) | other results
1 | CCn1c(=Cc2oc3ccccc3[n+]2C)sc(=C2Sc3ccccc3N2C)c1=O [Compound 14] | – | – | – | – | 400 | 667 | > 300 | 400 | – | – | – | – | – | – | – | T/C (human melanoma LOX; [1]): 147%; CV-1 (IC50) (CV-1 cells; [2]): 20 µg/mL; CV-1 (IC50) (CV-1 cells; Table IV): 20 µg/mL; CV-1 (IC50) (CV-1 cells; Table V): > 30 µg/mL; CV-1 (IC50) (CV-1 cells; Table VII): 20 µg/mL; CRL-1420(IC50) (CRL 1420 cells): 0.05 µg/mL; CX-1 (IC50) (CX-1 cells; Table III): 0.03 µg/mL; LOX(IC50) (LOX cells): < 0.1 µg/mL; EJ (IC50) (EJ cells): 0.05 µg/mL
2 | CCn1c(=Cc2oc3ccccc3[n+]2C)sc(=C2Sc3ccccc3N2C)c1=O [Compound 15] | – | – | – | – | 500 | 1000 | 286 | 100 | – | – | – | – | – | – | – | T/C (human melanoma LOX; [1]): 163%; CV-1 (IC50) (CV-1 cells; [2]): 20 µg/mL; CV-1 (IC50) (CV-1 cells; Table IV): 20 µg/mL; CV-1 (IC50) (CV-1 cells; Table V): 20 µg/mL; CV-1 (IC50) (CV-1 cells; Table VII): 20 µg/mL; CRL-1420(IC50) (CRL 1420 cells): 0.04 µg/mL; CX-1 (IC50) (CX-1 cells; Table III): 0.02 µg/mL; LOX(IC50) (LOX cells): 0.07 µg/mL; EJ (IC50) (EJ cells): 0.2 µg/mL
3 | CCn1c(=C2CC[n+]3c2sc2ccccc23)sc(=C2Sc3ccccc3N2C)c1=O [Compound 29] | 0.02 | 0.05 | 0.03 | 0.05 | 500 | 333 | 333 | 200 | 10 | 10 | 10 | 10 | 10 | 0.03 | 200 | –
4 | CCn1c(=Cc2sc3c4ccccc4ccc3[n+]2CC)sc(=C2Sc3ccccc3N2C)c1=O [Compound 31] | – | 0.04 | 0.04 | 0.02 | – | 333 | 250 | 500 | 10 | 10 | 10 | – | 10 | 0.03 | 250 | response vs control in vivo at 5 mg/kg (human melanoma LOX; Mus musculus, ip, 24 h, 5 mg/kg i.p. on day 1, 4, 8, 11, read-out: T/C): 153%
5 | CCn1c(=Cc2oc3c4ccccc4ccc3[n+]2CC)sc(=C2Sc3ccc4ccccc4c3N2C)c1=O [Compound 85] | 0.01 | – | < 0.01 | 0.007 | 600 | 750 | > 600 | 857 | – | – | – | – | 6 | 0.008 | – | response vs control in vivo at 5 mg/kg (human melanoma LOX; Mus musculus, ip, 24 h, 5 mg/kg i.p. on day 1, 4, 8, 11, 15, read-out: T/C): 174%
6 | CCn1c(=Cc2sc3ccc4ccccc4c3[n+]2CC)sc(=C2Oc3ccc4ccccc4c3N2C)c1=O [Compound 116] | – | 0.04 | – | – | – | – | – | – | – | – | 6 | – | – | – | 150 | –
7 | CCn1c(=Cc2sc3c4ccccc4ccc3[n+]2CC)sc(=C2Sc3ccc4ccccc4c3N2C)c1=O [Compound 204] | – | – | – | – | 500 | 667 | 222 | – | – | – | – | – | – | – | – | response vs control in vivo at 10 mg/kg (human melanoma LOX; Mus musculus, ip, 24 h, 10 mg/kg i.p. on day 1, 4, 8, 10, 12, read-out: T/C): > 270%; CV-1 (IC50) (CV-1 cells; [2]): 20 µg/mL; CV-1 (IC50) (CV-1 cells; Table V): 20 µg/mL; CV-1 (IC50) (CV-1 cells; Table VII): 20 µg/mL; CRL-1420(IC50) (CRL 1420 cells): 0.04 µg/mL; CX-1 (IC50) (CX-1 cells; Table III): 0.03 µg/mL; LOX(IC50) (LOX cells): 0.09 µg/mL
8 | CCn1c(=CC2=[N+](CC)CCS2)sc(=C2Oc3ccc4ccccc4c3N2C)c1=O [Compound 215] | 0.09 | 0.1 | 0.04 | – | 222 | 200 | 500 | – | – | 20 | 20 | 20 | 10 | 0.05 | 200 | response vs control in vivo at 3 mg/kg (human melanoma LOX; [4]): 167%
9 | CCn1c(=Cc2sc3ccc4ccccc4c3[n+]2CC)sc(=C2SCCN2C)c1=O [Compound 224] | – | 0.1 | 0.1 | – | – | 250 | 200 | – | – | 20 | 20 | – | 20 | – | 200 | response vs control in vivo at 3 mg/kg (human melanoma LOX; [4]): 161%; IC50 (CX-1 cells; CX-1, Table III): 0.08 µg/mL
10 | CCn1c(=Cc2oc3cc4ccccc4cc3[n+]2CC)sc(=C2C=Cc3ccccc3N2C)c1=O [Compound 227] | 0.05 | 0.05 | 0.03 | 0.05 | 160 | 100 | 267 | 160 | 8 | 8 | 8 | 8 | 8 | 0.08 | 160 | –
11 | CCn1c(=Cc2cc[n+](CC)c3ccccc23)sc(=C2C=Cc3ccccc3N2C)c1=O [Compound 232] | 0.03 | 0.04 | 0.02 | 0.05 | 200 | – | 300 | 120 | 6 | 6 | 6 | 6 | – | – | 150 | response vs control in vivo at 3 mg/kg (human melanoma LOX; [4]): > 270%

Now from value to compound, other results behind:

Row | IC50 (CRL 1420 cells) [µg/mL] | IC50 (MCF-7 cells) [µg/mL] | IC50 (LOX cells) [µg/mL] | IC50 (EJ cells) [µg/mL] | Compound | Selectivity (CRL 1420 cells) | Selectivity (ratio of IC50 for CV-1 and IC50 for CX-1) (CX-1 cells) | Selectivity (LOX cells) | Selectivity (EJ cells) | IC50 (CV-1 cells; CV-1, 24 h, Table IV) [µg/mL] | IC50 (CV-1 cells; CV-1, 24 h, Table V) [µg/mL] | IC50 (CV-1 cells; CV-1, 24 h, Table VI) [µg/mL] | IC50 (CV-1 cells; CV-1, 24 h, Table VII) [µg/mL] | IC50 (CV-1 cells; [3]) [µg/mL] | IC50 (CX-1 cells; Homo sapiens, CX-1, Table III) [µg/mL] | Selectivity (MCF-7 cells) | other results
12 | 0.03 | 0.03 | 0.005 | 0.02 | CCn1c(=Cc2oc3ccc4ccccc4c3[n+]2CC)sc(=C2Oc3c(ccc4ccccc34)N2C)c1=O [Compound 253] | 200 | 120 | 1200 | 300 | 6 | 6 | 6 | 6 | 6 | 0.05 | 200 | –
13 | 0.005 | 0.03 | 0.005 | 0.01 | CCn1c(=Cc2oc3c4ccccc4ccc3[n+]2CC)sc(=C2Oc3ccc4ccccc4c3N2C)c1=O [Compound 254] | 1200 | 120 | 1200 | 600 | 6 | 6 | 6 | 6 | – | – | 200 | CX-1 (IC50) (CX-1 cells; Table III): 0.05 µg/mL
14 | 0.005 | – | 0.005 | 0.005 | CCn1c(=Cc2sc3ccccc3[n+]2CC)sc(=C2Sc3ccc4ccccc4c3N2C)c1=O [Compound 310] | 400 | – | 400 | 400 | 2 | 2 | – | 2 | – | – | – | response vs control in vivo at 8 mg/kg (human melanoma LOX; Mus musculus, ip, 24 h, 8 mg/kg i.p. on day 1, 3, 4, 6, 8, 10, read-out: T/C): 206%
15 | – | 0.05 | – | – | CCn1c(=Cc2oc3c4ccccc4ccc3[n+]2CC)sc(=C2Sc3ccc4ccccc4c3N2C)c1=O [Compound 315] | 4000 | – | 4000 | 4000 | – | – | 20 | – | – | – | 400 | CRL-1420(IC50) (CRL 1420 cells): 0.005 µg/mL; LOX(IC50) (LOX cells): 0.005 µg/mL; EJ (IC50) (EJ cells): 0.005 µg/mL
16 | – | 0.05 | 0.01 | 0.03 | CCn1c(=Cc2oc3ccc4ccccc4c3[n+]2CC)sc(=C2Sc3ccccc3N2C)c1=O [Compound 337] | – | 100 | 800 | 267 | 8 | 8 | 8 | – | 8 | 0.08 | 160 | response vs control in vivo at 5 mg/kg (human melanoma LOX; Mus musculus, ip, 24 h, 5 mg/kg i.p. on day 1, 3, 4, 6, 8, 10, 13, read-out: T/C): 137%
17 | – | 0.1 | – | – | CCn1c(=CC2=[N+](CC)CCS2)sc(=C2SC3=C(CCCC3)N2C)c1=O [Compound 340] | – | – | – | – | – | – | 20 | – | – | – | 200 | response vs control in vivo at 8 mg/kg (human melanoma LOX; Mus musculus, ip, 24 h, 8 mg/kg i.p. on day 1, 3, 8, 13, read-out: T/C): 194%
